# Calls of active or inactive are those of the source. For most assays here, no stated cut-off is given here; in the data, actives have a measured Kd and inactives only a lower limit.
# Molecular target: Casein kinase I isoform delta (Homo sapiens, UniProt P48730)
row,SMILES,Kd
1,C[C@@H]1CN(Cc2ccc(F)cc2)[C@@H](C)CN1C(=O)c1cc2c(C(=O)C(=O)N(C)C)cn(C)c2cc1Cl [TALMAPIMOD],> 30 µM (inactive)
2,CN1CCC(COc2cnc(-c3cccc(Cn4nc(-c5cccc(C#N)c5)ccc4=O)c3)nc2)CC1 [TEPOTINIB],> 30 µM (inactive)
3,Nc1nc(N)c2nc(-c3cccc(O)c3)c(-c3cccc(O)c3)nc2n1 [TG100-115],> 30 µM (inactive)
4,COc1cc2nccc(Oc3ccc(NC(=O)Nc4cc(C)on4)c(Cl)c3)c2cc1OC [TIVOZANIB],> 30 µM (inactive)
5,CCCS(=O)(=O)Nc1ccc(F)c(C(=O)c2c[nH]c3ncc(-c4ccc(Cl)cc4)cc23)c1F [VEMURAFENIB],> 30 µM (inactive)

# Molecular target: Serine/threonine-protein kinase N3 (Homo sapiens, UniProt Q6P5Z2)
# Sequence (Q6P5Z2 whole entry): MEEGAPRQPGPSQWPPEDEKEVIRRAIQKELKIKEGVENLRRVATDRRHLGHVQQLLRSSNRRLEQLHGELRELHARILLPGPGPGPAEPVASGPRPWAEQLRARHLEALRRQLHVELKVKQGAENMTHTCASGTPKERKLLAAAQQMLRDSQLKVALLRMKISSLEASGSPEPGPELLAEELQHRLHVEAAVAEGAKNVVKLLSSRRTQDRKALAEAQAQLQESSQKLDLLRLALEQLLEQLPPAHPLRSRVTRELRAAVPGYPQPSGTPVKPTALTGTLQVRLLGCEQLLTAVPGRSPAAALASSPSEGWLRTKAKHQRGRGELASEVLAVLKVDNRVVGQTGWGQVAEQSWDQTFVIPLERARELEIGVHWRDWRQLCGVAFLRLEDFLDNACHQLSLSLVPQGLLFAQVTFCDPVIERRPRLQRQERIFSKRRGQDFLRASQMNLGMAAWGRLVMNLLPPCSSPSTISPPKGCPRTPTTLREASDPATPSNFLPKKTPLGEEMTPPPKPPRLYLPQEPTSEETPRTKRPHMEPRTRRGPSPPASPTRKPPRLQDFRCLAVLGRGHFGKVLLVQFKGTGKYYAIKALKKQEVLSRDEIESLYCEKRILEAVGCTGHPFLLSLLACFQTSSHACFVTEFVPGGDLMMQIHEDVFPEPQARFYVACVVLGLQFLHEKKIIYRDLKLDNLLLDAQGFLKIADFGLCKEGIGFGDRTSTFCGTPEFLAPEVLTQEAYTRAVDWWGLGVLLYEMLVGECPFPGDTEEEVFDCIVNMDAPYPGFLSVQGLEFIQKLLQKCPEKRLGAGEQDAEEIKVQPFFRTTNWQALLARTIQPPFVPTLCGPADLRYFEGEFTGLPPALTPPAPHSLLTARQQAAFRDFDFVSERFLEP
row,SMILES,Kd
1,C[C@@H]1CN(Cc2ccc(F)cc2)[C@@H](C)CN1C(=O)c1cc2c(C(=O)C(=O)N(C)C)cn(C)c2cc1Cl [TALMAPIMOD],> 30 µM (inactive)
2,Nc1nc(N)c2nc(-c3cccc(O)c3)c(-c3cccc(O)c3)nc2n1 [TG100-115],> 30 µM (inactive)
3,COc1cc2nccc(Oc3ccc(NC(=O)Nc4cc(C)on4)c(Cl)c3)c2cc1OC [TIVOZANIB],> 30 µM (inactive)
4,CCCS(=O)(=O)Nc1ccc(F)c(C(=O)c2c[nH]c3ncc(-c4ccc(Cl)cc4)cc23)c1F [VEMURAFENIB],> 30 µM (inactive)

# Molecular target: cAMP-dependent protein kinase catalytic subunit alpha (Homo sapiens, UniProt P17612)
row,SMILES,Kd
1,C[C@@H]1CN(Cc2ccc(F)cc2)[C@@H](C)CN1C(=O)c1cc2c(C(=O)C(=O)N(C)C)cn(C)c2cc1Cl [TALMAPIMOD],> 30 µM (inactive)
2,CN1CCC(COc2cnc(-c3cccc(Cn4nc(-c5cccc(C#N)c5)ccc4=O)c3)nc2)CC1 [TEPOTINIB],> 30 µM (inactive)
3,COc1cc2nccc(Oc3ccc(NC(=O)Nc4cc(C)on4)c(Cl)c3)c2cc1OC [TIVOZANIB],> 30 µM (inactive)
4,CCCS(=O)(=O)Nc1ccc(F)c(C(=O)c2c[nH]c3ncc(-c4ccc(Cl)cc4)cc23)c1F [VEMURAFENIB],> 30 µM (inactive)

# Molecular target: Ribosomal protein S6 kinase alpha-5 (Homo sapiens, UniProt O75582)
# Sequence (O75582 whole entry): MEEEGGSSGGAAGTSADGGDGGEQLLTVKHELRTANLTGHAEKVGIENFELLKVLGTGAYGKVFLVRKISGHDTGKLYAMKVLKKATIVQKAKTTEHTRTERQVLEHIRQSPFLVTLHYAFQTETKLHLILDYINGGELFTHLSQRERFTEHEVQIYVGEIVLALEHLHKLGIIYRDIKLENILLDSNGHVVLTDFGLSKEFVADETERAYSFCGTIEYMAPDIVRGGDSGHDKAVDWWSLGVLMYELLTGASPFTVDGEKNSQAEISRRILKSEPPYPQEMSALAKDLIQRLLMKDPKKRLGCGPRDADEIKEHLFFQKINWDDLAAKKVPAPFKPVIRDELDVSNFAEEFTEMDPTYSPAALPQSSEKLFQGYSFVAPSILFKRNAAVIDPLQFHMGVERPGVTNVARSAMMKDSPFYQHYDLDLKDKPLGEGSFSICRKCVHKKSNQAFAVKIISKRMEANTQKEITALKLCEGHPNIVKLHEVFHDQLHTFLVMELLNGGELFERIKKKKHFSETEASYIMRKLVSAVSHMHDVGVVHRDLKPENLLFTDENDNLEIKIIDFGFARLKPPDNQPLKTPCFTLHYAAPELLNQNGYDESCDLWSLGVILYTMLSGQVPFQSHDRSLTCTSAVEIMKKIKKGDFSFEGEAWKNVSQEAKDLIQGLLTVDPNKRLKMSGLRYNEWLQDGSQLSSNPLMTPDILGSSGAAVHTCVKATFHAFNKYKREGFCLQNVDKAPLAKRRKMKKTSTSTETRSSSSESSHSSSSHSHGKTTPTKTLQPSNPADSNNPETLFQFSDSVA
row,SMILES,Kd
1,C[C@@H]1CN(Cc2ccc(F)cc2)[C@@H](C)CN1C(=O)c1cc2c(C(=O)C(=O)N(C)C)cn(C)c2cc1Cl [TALMAPIMOD],> 30 µM (inactive)
2,CN1CCC(COc2cnc(-c3cccc(Cn4nc(-c5cccc(C#N)c5)ccc4=O)c3)nc2)CC1 [TEPOTINIB],> 30 µM (inactive)
3,COc1cc2nccc(Oc3ccc(NC(=O)Nc4cc(C)on4)c(Cl)c3)c2cc1OC [TIVOZANIB],> 30 µM (inactive)
4,CCCS(=O)(=O)Nc1ccc(F)c(C(=O)c2c[nH]c3ncc(-c4ccc(Cl)cc4)cc23)c1F [VEMURAFENIB],> 30 µM (inactive)

# Molecular target: T1, Serine/threonine-protein kinase Chk1 (Homo sapiens, UniProt O14757)
# T1 sequence (O14757 whole entry): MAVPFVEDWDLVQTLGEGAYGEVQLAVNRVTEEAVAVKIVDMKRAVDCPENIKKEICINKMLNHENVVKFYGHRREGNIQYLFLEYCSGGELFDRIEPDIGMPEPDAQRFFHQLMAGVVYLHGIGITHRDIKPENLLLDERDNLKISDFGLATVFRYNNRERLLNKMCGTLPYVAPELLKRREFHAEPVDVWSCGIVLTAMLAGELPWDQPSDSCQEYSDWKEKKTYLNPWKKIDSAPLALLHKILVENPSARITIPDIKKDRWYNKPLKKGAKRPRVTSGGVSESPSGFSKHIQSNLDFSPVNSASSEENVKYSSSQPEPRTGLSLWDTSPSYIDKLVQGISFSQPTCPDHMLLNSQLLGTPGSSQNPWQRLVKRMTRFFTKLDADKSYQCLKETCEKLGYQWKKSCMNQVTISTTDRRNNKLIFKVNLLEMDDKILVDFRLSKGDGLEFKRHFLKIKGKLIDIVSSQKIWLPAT
row,SMILES,Kd
1,C[C@@H]1CN(Cc2ccc(F)cc2)[C@@H](C)CN1C(=O)c1cc2c(C(=O)C(=O)N(C)C)cn(C)c2cc1Cl [TALMAPIMOD],> 30 µM (inactive)
2,COc1cc2nccc(Oc3ccc(NC(=O)Nc4cc(C)on4)c(Cl)c3)c2cc1OC [TIVOZANIB],> 30 µM (inactive)
3,CCCS(=O)(=O)Nc1ccc(F)c(C(=O)c2c[nH]c3ncc(-c4ccc(Cl)cc4)cc23)c1F [VEMURAFENIB],> 30 µM (inactive)

# Molecular target: Serine/threonine-protein kinase ATR (Homo sapiens, UniProt Q13535)
# Sequence (Q13535 whole entry): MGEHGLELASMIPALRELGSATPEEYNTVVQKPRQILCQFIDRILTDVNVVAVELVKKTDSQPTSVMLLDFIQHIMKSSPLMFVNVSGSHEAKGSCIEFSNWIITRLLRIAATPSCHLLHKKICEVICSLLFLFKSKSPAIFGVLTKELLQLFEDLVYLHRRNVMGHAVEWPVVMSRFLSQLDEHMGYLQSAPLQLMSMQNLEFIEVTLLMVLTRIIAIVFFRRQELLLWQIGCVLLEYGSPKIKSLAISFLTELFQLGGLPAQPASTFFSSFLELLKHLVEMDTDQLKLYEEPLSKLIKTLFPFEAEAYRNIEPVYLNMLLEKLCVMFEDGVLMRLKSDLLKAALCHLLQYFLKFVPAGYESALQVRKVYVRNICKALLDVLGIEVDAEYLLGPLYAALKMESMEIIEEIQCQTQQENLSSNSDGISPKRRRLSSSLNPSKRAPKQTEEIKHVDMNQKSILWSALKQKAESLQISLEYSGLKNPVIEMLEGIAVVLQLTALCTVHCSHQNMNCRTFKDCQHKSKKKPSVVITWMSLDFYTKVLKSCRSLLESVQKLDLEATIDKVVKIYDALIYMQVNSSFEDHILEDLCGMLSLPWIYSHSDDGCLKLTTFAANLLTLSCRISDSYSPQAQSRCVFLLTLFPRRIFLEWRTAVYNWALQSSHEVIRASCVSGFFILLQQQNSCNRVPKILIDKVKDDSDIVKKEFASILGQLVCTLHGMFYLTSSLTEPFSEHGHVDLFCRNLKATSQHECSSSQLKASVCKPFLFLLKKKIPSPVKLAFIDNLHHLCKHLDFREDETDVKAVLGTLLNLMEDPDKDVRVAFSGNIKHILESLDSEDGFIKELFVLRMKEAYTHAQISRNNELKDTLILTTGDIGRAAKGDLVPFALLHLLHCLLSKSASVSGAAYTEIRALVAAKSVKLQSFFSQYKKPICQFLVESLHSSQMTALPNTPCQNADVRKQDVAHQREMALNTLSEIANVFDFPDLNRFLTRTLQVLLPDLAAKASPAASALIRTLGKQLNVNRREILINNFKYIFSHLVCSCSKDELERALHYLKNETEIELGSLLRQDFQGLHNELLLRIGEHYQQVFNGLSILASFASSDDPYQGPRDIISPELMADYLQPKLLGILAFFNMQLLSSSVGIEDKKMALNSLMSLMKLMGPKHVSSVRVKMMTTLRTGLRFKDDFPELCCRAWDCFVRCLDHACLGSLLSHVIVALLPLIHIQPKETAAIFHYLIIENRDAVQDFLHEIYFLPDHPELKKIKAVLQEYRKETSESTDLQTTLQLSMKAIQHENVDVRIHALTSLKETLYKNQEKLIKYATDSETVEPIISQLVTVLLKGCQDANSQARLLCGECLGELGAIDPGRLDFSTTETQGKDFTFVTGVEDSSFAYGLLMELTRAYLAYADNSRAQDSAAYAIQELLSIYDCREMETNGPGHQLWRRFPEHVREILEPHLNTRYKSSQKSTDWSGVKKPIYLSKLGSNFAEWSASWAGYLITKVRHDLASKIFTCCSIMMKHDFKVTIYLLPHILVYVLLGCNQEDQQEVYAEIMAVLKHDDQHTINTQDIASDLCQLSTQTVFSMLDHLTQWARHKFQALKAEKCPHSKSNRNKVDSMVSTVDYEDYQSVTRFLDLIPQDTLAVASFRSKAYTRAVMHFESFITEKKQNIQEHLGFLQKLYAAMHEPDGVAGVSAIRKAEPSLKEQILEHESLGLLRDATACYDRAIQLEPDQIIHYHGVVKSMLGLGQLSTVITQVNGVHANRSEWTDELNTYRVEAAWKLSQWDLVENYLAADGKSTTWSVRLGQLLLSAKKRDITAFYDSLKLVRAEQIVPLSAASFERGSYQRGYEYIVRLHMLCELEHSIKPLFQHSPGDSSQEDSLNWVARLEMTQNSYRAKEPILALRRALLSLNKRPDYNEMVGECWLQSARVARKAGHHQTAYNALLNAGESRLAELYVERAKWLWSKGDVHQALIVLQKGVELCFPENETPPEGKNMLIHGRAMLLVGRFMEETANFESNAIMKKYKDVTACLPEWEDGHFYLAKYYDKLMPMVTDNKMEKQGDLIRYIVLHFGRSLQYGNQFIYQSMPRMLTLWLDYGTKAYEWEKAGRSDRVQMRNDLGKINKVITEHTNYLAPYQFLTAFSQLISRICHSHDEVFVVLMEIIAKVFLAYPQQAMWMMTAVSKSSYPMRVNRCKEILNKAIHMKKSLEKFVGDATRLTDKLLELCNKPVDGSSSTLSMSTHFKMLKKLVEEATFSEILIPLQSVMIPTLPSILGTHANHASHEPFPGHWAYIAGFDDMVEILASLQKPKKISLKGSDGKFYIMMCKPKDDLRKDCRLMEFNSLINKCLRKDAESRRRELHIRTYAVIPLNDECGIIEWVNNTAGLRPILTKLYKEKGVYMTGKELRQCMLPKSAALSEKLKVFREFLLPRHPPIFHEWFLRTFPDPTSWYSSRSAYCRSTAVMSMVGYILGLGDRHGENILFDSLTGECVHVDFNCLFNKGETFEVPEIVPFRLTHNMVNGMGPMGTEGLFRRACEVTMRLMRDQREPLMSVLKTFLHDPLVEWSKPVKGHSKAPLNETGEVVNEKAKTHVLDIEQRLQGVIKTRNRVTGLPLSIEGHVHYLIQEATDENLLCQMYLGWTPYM
row,SMILES,Kd
1,C[C@@H]1CN(Cc2ccc(F)cc2)[C@@H](C)CN1C(=O)c1cc2c(C(=O)C(=O)N(C)C)cn(C)c2cc1Cl [TALMAPIMOD],> 30 µM (inactive)
2,CN1CCC(COc2cnc(-c3cccc(Cn4nc(-c5cccc(C#N)c5)ccc4=O)c3)nc2)CC1 [TEPOTINIB],> 30 µM (inactive)
3,Nc1nc(N)c2nc(-c3cccc(O)c3)c(-c3cccc(O)c3)nc2n1 [TG100-115],> 30 µM (inactive)
4,COc1cc2nccc(Oc3ccc(NC(=O)Nc4cc(C)on4)c(Cl)c3)c2cc1OC [TIVOZANIB],> 30 µM (inactive)
5,CCCS(=O)(=O)Nc1ccc(F)c(C(=O)c2c[nH]c3ncc(-c4ccc(Cl)cc4)cc23)c1F [VEMURAFENIB],> 30 µM (inactive)

# Molecular target: T2, Pyridoxal kinase (Homo sapiens, UniProt O00764)
# T2 sequence (O00764 whole entry): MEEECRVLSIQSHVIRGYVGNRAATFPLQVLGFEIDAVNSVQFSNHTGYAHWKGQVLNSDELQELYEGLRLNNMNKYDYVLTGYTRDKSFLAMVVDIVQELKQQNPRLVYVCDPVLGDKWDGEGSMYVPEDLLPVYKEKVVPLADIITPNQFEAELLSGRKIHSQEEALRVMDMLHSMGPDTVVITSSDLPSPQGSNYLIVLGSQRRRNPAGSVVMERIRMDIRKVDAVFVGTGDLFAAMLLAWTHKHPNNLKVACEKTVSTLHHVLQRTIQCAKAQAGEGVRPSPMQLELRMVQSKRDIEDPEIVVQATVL
row,SMILES,Kd
1,C[C@@H]1CN(Cc2ccc(F)cc2)[C@@H](C)CN1C(=O)c1cc2c(C(=O)C(=O)N(C)C)cn(C)c2cc1Cl [TALMAPIMOD],> 30 µM (inactive)
2,CN1CCC(COc2cnc(-c3cccc(Cn4nc(-c5cccc(C#N)c5)ccc4=O)c3)nc2)CC1 [TEPOTINIB],> 30 µM (inactive)
3,Nc1nc(N)c2nc(-c3cccc(O)c3)c(-c3cccc(O)c3)nc2n1 [TG100-115],5.25 µM (active)
4,COc1cc2nccc(Oc3ccc(NC(=O)Nc4cc(C)on4)c(Cl)c3)c2cc1OC [TIVOZANIB],> 30 µM (inactive)
5,CCCS(=O)(=O)Nc1ccc(F)c(C(=O)c2c[nH]c3ncc(-c4ccc(Cl)cc4)cc23)c1F [VEMURAFENIB],> 30 µM (inactive)

# Molecular target: Ribosomal protein S6 kinase alpha-3 (Homo sapiens, UniProt P51812)
row,SMILES,Kd
1,C[C@@H]1CN(Cc2ccc(F)cc2)[C@@H](C)CN1C(=O)c1cc2c(C(=O)C(=O)N(C)C)cn(C)c2cc1Cl [TALMAPIMOD],> 30 µM (inactive)
2,CN1CCC(COc2cnc(-c3cccc(Cn4nc(-c5cccc(C#N)c5)ccc4=O)c3)nc2)CC1 [TEPOTINIB],> 30 µM (inactive)
3,COc1cc2nccc(Oc3ccc(NC(=O)Nc4cc(C)on4)c(Cl)c3)c2cc1OC [TIVOZANIB],> 30 µM (inactive)
4,CCCS(=O)(=O)Nc1ccc(F)c(C(=O)c2c[nH]c3ncc(-c4ccc(Cl)cc4)cc23)c1F [VEMURAFENIB],> 30 µM (inactive)

# Molecular target: Serine/threonine-protein kinase Nek7 (Homo sapiens, UniProt Q8TDX7)
# Sequence (Q8TDX7 whole entry): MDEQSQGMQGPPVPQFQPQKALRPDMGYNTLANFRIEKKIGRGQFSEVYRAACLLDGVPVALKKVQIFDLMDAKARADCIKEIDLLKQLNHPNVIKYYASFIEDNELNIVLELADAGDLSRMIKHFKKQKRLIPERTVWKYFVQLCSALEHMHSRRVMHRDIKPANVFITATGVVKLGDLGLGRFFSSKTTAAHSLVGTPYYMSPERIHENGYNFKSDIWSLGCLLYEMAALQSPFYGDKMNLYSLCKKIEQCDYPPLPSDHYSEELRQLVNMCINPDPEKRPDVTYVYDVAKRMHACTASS
row,SMILES,Kd
1,CN1CCC(COc2cnc(-c3cccc(Cn4nc(-c5cccc(C#N)c5)ccc4=O)c3)nc2)CC1 [TEPOTINIB],> 30 µM (inactive)
2,COc1cc2nccc(Oc3ccc(NC(=O)Nc4cc(C)on4)c(Cl)c3)c2cc1OC [TIVOZANIB],> 30 µM (inactive)
3,CCCS(=O)(=O)Nc1ccc(F)c(C(=O)c2c[nH]c3ncc(-c4ccc(Cl)cc4)cc23)c1F [VEMURAFENIB],> 30 µM (inactive)

# Molecular target: T3, Protein kinase C zeta type (Homo sapiens, UniProt Q05513)
# T3 sequence (Q05513 whole entry): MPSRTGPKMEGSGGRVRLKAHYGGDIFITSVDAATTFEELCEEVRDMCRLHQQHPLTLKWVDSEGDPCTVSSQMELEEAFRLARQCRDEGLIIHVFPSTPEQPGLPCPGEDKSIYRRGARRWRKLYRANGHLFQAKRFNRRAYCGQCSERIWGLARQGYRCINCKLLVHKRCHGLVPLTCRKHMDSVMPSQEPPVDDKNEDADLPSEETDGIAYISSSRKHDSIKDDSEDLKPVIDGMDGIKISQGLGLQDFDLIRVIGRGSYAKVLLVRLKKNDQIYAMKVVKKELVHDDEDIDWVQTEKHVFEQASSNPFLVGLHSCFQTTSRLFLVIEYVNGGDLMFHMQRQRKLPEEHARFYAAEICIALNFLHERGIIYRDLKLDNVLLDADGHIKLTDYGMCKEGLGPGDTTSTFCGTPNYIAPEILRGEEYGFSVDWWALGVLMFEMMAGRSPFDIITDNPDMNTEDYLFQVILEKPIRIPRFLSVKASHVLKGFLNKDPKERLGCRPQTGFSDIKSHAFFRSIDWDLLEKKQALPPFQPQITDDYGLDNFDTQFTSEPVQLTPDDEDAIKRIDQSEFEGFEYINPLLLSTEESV
row,SMILES,Kd
1,C[C@@H]1CN(Cc2ccc(F)cc2)[C@@H](C)CN1C(=O)c1cc2c(C(=O)C(=O)N(C)C)cn(C)c2cc1Cl [TALMAPIMOD],> 30 µM (inactive)
2,CN1CCC(COc2cnc(-c3cccc(Cn4nc(-c5cccc(C#N)c5)ccc4=O)c3)nc2)CC1 [TEPOTINIB],> 30 µM (inactive)
3,Nc1nc(N)c2nc(-c3cccc(O)c3)c(-c3cccc(O)c3)nc2n1 [TG100-115],> 30 µM (inactive)
4,COc1cc2nccc(Oc3ccc(NC(=O)Nc4cc(C)on4)c(Cl)c3)c2cc1OC [TIVOZANIB],> 30 µM (inactive)

# Molecular target: Calcium/calmodulin-dependent protein kinase type II subunit gamma (Homo sapiens, UniProt Q13555)
row,SMILES,Kd
1,C[C@@H]1CN(Cc2ccc(F)cc2)[C@@H](C)CN1C(=O)c1cc2c(C(=O)C(=O)N(C)C)cn(C)c2cc1Cl [TALMAPIMOD],> 30 µM (inactive)
2,CN1CCC(COc2cnc(-c3cccc(Cn4nc(-c5cccc(C#N)c5)ccc4=O)c3)nc2)CC1 [TEPOTINIB],> 30 µM (inactive)
3,COc1cc2nccc(Oc3ccc(NC(=O)Nc4cc(C)on4)c(Cl)c3)c2cc1OC [TIVOZANIB],> 30 µM (inactive)
4,CCCS(=O)(=O)Nc1ccc(F)c(C(=O)c2c[nH]c3ncc(-c4ccc(Cl)cc4)cc23)c1F [VEMURAFENIB],> 30 µM (inactive)

# Molecular target: Dual specificity protein kinase CLK1 (Homo sapiens, UniProt P49759)
# Sequence (P49759 whole entry): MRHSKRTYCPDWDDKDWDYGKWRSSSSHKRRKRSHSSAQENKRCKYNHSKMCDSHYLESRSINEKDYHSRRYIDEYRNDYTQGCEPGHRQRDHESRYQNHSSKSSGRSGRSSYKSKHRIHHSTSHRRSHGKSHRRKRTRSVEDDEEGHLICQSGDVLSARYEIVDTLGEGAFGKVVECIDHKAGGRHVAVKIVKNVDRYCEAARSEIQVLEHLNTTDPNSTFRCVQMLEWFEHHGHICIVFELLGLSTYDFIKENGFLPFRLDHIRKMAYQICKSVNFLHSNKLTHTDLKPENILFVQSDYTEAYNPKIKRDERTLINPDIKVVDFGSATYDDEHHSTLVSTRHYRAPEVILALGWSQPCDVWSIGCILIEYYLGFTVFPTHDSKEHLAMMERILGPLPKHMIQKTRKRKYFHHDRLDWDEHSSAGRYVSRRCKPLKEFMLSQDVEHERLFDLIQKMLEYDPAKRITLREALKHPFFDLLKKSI
row,SMILES,Kd
1,C[C@@H]1CN(Cc2ccc(F)cc2)[C@@H](C)CN1C(=O)c1cc2c(C(=O)C(=O)N(C)C)cn(C)c2cc1Cl [TALMAPIMOD],> 30 µM (inactive)
2,CN1CCC(COc2cnc(-c3cccc(Cn4nc(-c5cccc(C#N)c5)ccc4=O)c3)nc2)CC1 [TEPOTINIB],> 30 µM (inactive)
3,COc1cc2nccc(Oc3ccc(NC(=O)Nc4cc(C)on4)c(Cl)c3)c2cc1OC [TIVOZANIB],> 30 µM (inactive)
4,CCCS(=O)(=O)Nc1ccc(F)c(C(=O)c2c[nH]c3ncc(-c4ccc(Cl)cc4)cc23)c1F [VEMURAFENIB],> 30 µM (inactive)
